Measured values as given in patent US7879611B2, “System for functional gene discovery in plants” (Agrigenetics Inc, priority 2000, dated 2011).

Columns and labels:
[1] = system: wild-type cotyledons in Arabidopsis
Description: A salt tolerance screen is performed to identify and isolate gene(s) that confer salt (NaCl) tolerance in Arabidopsis.
A primary screen is conducted with T1 plants, using a germination assay. T1 seed is plated evenly in media supplemented with 250 mM NaCl. For negative and positive controls, wild type (Col-O) seed is plated in plates with and without, respectively, the supplemental NaCl. Plates are incubated for two days at 4° C., then transferred to a growth room and incubated an additional 7 to 14 days.
Salt tolerant germination is classified in five stages: 1) imbibation, emergence of radicle; 2) expansion and greening of cotyledons; 3) elongation of the hypocotyl; 4) elongation of the root and formation of root hairs; 5) development of true leaves.

[2] = system: wild type (Col-0) Arabidopsis; test: Copper tolerance germination assay; format: in vivo
Description: A screen for copper tolerance was developed in order to identify and isolate gene(s) whose altered expression confers copper tolerance and allows normal plant growth and development in the presence of an inhibitory level of copper. It has been experimentally determined that the lowest completely inhibitory concentration (LCI) of copper is 160 μM for hypocotyl and cotyledon expansion and the development of true leaves in wild type (Col-0) Arabidopsis.
For the primary screen, pooled T2 lines are plated on media supplemented with 160 μM CuSO4. Controls include wild type (Col-0 cand Shadara) plants germinating on plates with no copper and copper at the Col-0 LCI for germination. Plates are incubated 3 days at 4° C., then transferred to the growth room and incubated an additional 10 days.
Copper sensitivity is evaluated with germination assays, which are performed as described above for salt resistance screens.

| SMILES | concentration that completely abolishes expansion and green pigmentation of cotyledons [1] | concentration at which negative gravitropism of the hypocotyl is completely inhibited [2] | concentration at which root elongation is inhibited [2] | lowest completely inhibitory concentration (LCI) ([2]; hypocotyl and cotyledon expansion and development of true leaves) |
| --- | --- | --- | --- | --- |
| [Cl-].[Na+] [NaCl] | greater than 250 mM |  |  |  |
| O=S(=O)([O-])[O-].[Cu+2] [copper, CuSO4] |  | 50 µM | 100 µM | 160 µM |
